# Laboratory results from patent publication US20100179130A1, “USE OF PIPERINE AND DERIVATIVES THEREOF FOR THE THERAPY OF NEUROLOGICAL CONDITIONS” (SYNGIS Bioscience GmbH & Co. KG, priority 2007, published 2010).
# Legend:
# adult rats = assay: Neurogenesis in vivo, BrdU/NeuN co-staining of hippocampal slices; set-up: species or system rat; settings: 6 weeks
# Protocol: Male adult rats were divided in three groups. The rats were treated i.p. with 20% Solutol-HS15 (BASF SE) as vehicle (control group, n=11), 1 mg/kg bodyweight piperine (piperine I group, n=14 with total dose of 5 mg/kg piperin), or 10 mg/kg bodyweight piperine (piperine II group, n=13 with total dose of 50 mg/kg) once daily for 5 consecutive days. Piperine was solved in 20% Solutol-HS15 as described in Example 7. Further, all animals received BrdU (i.p. 50 mg/kg bodyweight) twice daily during these initial 5 days. BrdU is stably incorporated by dividing cells and therefore a suitable tool for the labelling of cells that divided within an experimentally defined time-window (i.e. the time during which BrdU was administered, which in the present example corresponds to the time during which Piperine was administered (Bagley et al BMC Neurosci. 2007; 8:92). The animals were sacrificed 6 weeks after the beginning of the treatment. Brains were removed rapidly, fixed with 4% paraformaldehyd and stored in 4% paraformaldehyd for further immunohistochemical analysis. 10 μm slices of the hippocampal area were generated and stained with sheep-anti-BrdU antibodies (Abcam, 1:100) and mouse-anti-NeuN antibodies (Chemicon, 1:500). Subsequently, the slices were stained for fluorescent detection with anti-sheep-biotin plus streptavidin-Cy2 and anti-mouse-Alexa555 (Molecular Probes, Fisher). […]
# rat MCAO model = assay: Rat MCAO (filament) model for stroke, infarct volume by TTC staining
# [1] = tested on: motoneural cell line NSC-34; assay: Anti-apoptosis assay on motoneural cell line, staurosporine induced apoptosis, Caspase-Glo 3/7; format: cell-based; settings: compound 1 μM in the presence of staurosporine 0.1 μM
# Protocol: Instead of the SH-SY5Y cells used in Example 3 and 4, this analysis was performed with motoneural cell line NSC-34. […] Incubation with staurosporine (SP; 0.1 μM) alone served as positive control and incubation with vehicle served as negative control. The degree of apoptosis relative to the staurosporine control is shown in FIG. 4 (vehicle (sham): 6%; staurosporine (SP): 100%; piperine plus staurosporine: 70%; derivative B plus staurosporine: 55%; derivative E plus staurosporine: 75%; derivative G plus staurosporine: 76%; derivative K plus staurosporine: 83%; derivative S plus staurosporine: 77%; derivative U plus staurosporine: 71%).
# [2] = in vivo; cited from earlier work
# [3] = oral, approximately 5 to 20 mg daily, human patients; cited from earlier work
# mice = settings: cited from earlier work
compound,measurement,setting,value
"O=C(/C=C/C=C/c1ccc2c(c1)OCO2)N1CCCCC1 [Piperine, (E,E)-1-[5-(1,3-benzodioxol-5-yl)-1-oxo-2,4-pentadienyl]piperidine]",neurogenesis (NeuN/BrdU-positive cells per slice) compared to the control level,adult rats; 1 mg/kg i.p. once daily for 5 days (total 5 mg/kg),clearly elevated levels of neurogenesis
same,neurogenesis (NeuN/BrdU-positive cells per slice) compared to the control level,adult rats; 10 mg/kg i.p. once daily for 5 days (total 50 mg/kg),clearly elevated levels of neurogenesis
same,total edema-corrected infarct size,"rat MCAO model; 10 mg/kg i.v. 30 min after onset of occlusion, 24 h, mean ± SEM, n=30, p=0.031 vs vehicle",151±17 mm^3
same,"edema-corrected infarct volume, subcortical areas","rat MCAO model; 10 mg/kg i.v. 30 min after onset of occlusion, 24 h, mean ± SEM, not statistically significant",78±6 mm^3
same,"edema-corrected infarct volume, cortex","rat MCAO model; 10 mg/kg i.v. 30 min after onset of occlusion, 24 h, mean ± SEM, p=0.018 vs vehicle",73±14 mm^3
same,tolerability of the treatment,"rat MCAO model; 10 mg/kg i.v., rat",well tolerated
same,degree of apoptosis relative to the staurosporine control,[1],70%
same,time of peak blood levels after dosing,[2],1 to 2 h
same,tolerability,[3],well tolerated
same,"seizure activity induced by L-glutamate, N-methyl-D-aspartate or guanidinosuccinate",mice,did not significantly block seizure activity
same,clonic convulsions induced by kainate,mice; injected intra-peritoneally,inhibited clonic convulsions
